The record followed here is patent publication US20230310388A1, “Methods and Compositions for Treating Fungal Infections” (Neoculi Pty Ltd, priority 2020, published 2023).

The structures appear in SMILES notation. Converted amounts (≈) assume the structure as drawn. “And” between values parts separate entries of the source, which are not always exact repeats. Equal entries are not always repeated.

This assay concerns Candida albicans ATCC14053. The experiment in a line: Broth micro-dilution screen at 16 μg/mL and MIC (Example 9). Type of assay: cell-based. To be noted: for Screen at 16 μg/mL: single concentration 16 μg/mL, Growth or No growth of C. albicans ATCC14053; for MIC: C. albicans ATCC14053, test range 0.25-64 μg/mL, duplicate. The procedure:
The antifungal activity of 201 NCL analogs against Candida albicans ATCC14053 in vitro was investigated. A broth micro-dilution method was used, according to CLSI guidelines as described. NCL analogs were dissolved in DMSO and originally screened at a single concentration of 16 μg/mL.

For `Cl.N=C(NN=Cc1ccccc1-c1ccccc1)NN=Cc1ccccc1-c1ccccc1` [NCL116], the “Screen at 16 μg/mL” value is given as “Growth”.
The same measure, in the same setting: under `CC(=O)Nc1cc(Cl)ccc1C=NNC(=N)NN=Cc1ccc(Cl)cc1NC(C)=O` [NCL170] stands “Growth”; under `Cl.N=C(NN=Cc1cccc2nsnc12)NN=Cc1cccc2nsnc12` [NCL276], “Growth”; under `Cl.N=C(NN=Cc1ccncc1)NN=Cc1ccncc1` [NCL149], “Growth”.
Same read-out and setting: under `Cl.N=C(NN=Cc1ccccc1F)NN=Cc1ccccc1F` [NCL022] stands “Growth”; under `N=C(N)NN=CC=Cc1ccccc1` [NCL249], “Growth”.
On the same count and under the same terms, with `Nc1nc(NN=Cc2ccccc2O)nc(NN=Cc2ccccc2O)n1` [NCL207] the entry was “Growth”; with `Cl.N=C(NN=Cc1cccc([N+](=O)[O-])c1)NN=Cc1cccc([N+](=O)[O-])c1` [NCL109], “Growth”.
Turning to `CC(=O)Nc1ccc(C=NNC(=N)NN=Cc2ccc(NC(C)=O)cc2)cc1.Cl` [NCL119], the “Screen at 16 μg/mL” value is given as “Growth”.
Same read-out and setting: with `Cl.Cl.Nc1nc(NN=CC2CCCCC2)cc(NN=CC2CCCCC2)n1` [NCL203] the entry was “Growth”.
Still for that read-out and setting: with `Nc1nc(NN=Cc2cccc3ccccc23)cc(NN=Cc2cccc3ccccc23)n1` [NCL245] the entry was “Growth”.
Still for that read-out and setting: under `Cl.N=C(N)NN=Cc1cccc(F)c1` [NCL017] stands “Growth”; under `CC(=NNC(=N)NN=C(C)c1ccccn1)c1ccccn1.Cl` [NCL172], “Growth”.
Regarding `Cl.N=C(NN=Cc1cccc(O)c1O)NN=Cc1cccc(O)c1O` [NCL101], the “Screen at 16 μg/mL” value is recorded as “No growth”.
Consider `CSc1ccc(C=NNC(=N)NN=Cc2ccc(SC)cc2)cc1.Cl` [NCL140], for which the MIC was 1 µg/mL and 2 µg/mL; the “Screen at 16 μg/mL” value was “No growth”.
With `Nc1nc(NN=Cc2ccc(Br)cc2)cc(NN=Cc2ccc(Br)cc2)n1` [NCL193], the “Screen at 16 μg/mL” value is given as “Growth”.
The same measure, in the same setting: with `Nc1nc(NN=Cc2ccc(O)cc2)cc(NN=Cc2ccc(O)cc2)n1` [NCL196] the entry was “Growth”; with `Cc1cccc(C=NNC(=O)NN=Cc2cccc(C)c2)c1` [NCL019], “Growth”; with `Cl.N=C(NN=Cc1ccc(Cl)cc1Cl)NN=Cc1ccc(Cl)cc1Cl` [NCL127], “Growth”.
On the same count and under the same terms, with `Cl.OCC(=NNc1cc(NN=C(CO)c2ccc(Cl)cc2)ncn1)c1ccc(Cl)cc1` [NCL189] the entry was “Growth”; with `Cl.N=C(NN=Cc1ccc(C=CC(=O)O)cc1)NN=Cc1ccc(C=CC(=O)O)cc1` [NCL148], “Growth”.
`NC(=NN=Cc1ccc(Cl)cc1)N(N=Cc1ccc(Cl)cc1)C(=O)NCc1ccccc1` [NCL227]: the MIC was greater than 64 µg/mL and the “Screen at 16 μg/mL” value is “Growth”.
For the molecule `Cl.N=C(NN=Cc1ccc(Br)o1)NN=Cc1ccc(Br)o1` [NCL144], the “Screen at 16 μg/mL” value was “Growth”.
Take `CCCc1ccc(C=NNC(=N)NN=Cc2ccc(CCC)cc2)cc1.Cl` [NCL121]: the minimum inhibitory concentration (MIC) was 4 µg/mL and 8 µg/mL; the “Screen at 16 μg/mL” value is reported as “No growth”.
In the case of `CC(C)COC(=O)N(N=Cc1ccc(Cl)cc1)C(N)=NN=Cc1ccc(Cl)cc1` [NCL225], the “Screen at 16 μg/mL” value was “Growth”.
As to `Cl.N=C(NN=Cc1ccc(F)cc1)NN=Cc1ccc(F)cc1` [NCL021], the minimal inhibitory concentration (MIC) was 0.5 µg/mL and 1 µg/mL; the “Screen at 16 μg/mL” value is recorded as “No growth”.
Regarding `NC(=NN=Cc1ccc(Cl)cc1)N(N=Cc1ccc(Cl)cc1)C(=O)NCc1ccco1` [NCL229], the “Screen at 16 μg/mL” value is recorded as “Growth”.
On to `CCCCCC(=NNC(=N)N)c1ccc(Cl)cc1.Cl` [NCL254], for which the MIC worked out at 8 µg/mL and the “Screen at 16 μg/mL” value is listed as “No growth”.
As for `Cl.N=C(NN=Cc1ccc(Cl)o1)NN=Cc1ccc(Cl)o1` [NCL145], the “Screen at 16 μg/mL” value is reported as “Growth”.
On to `CCOCC(=NNC(=N)NN=C(COCC)c1ccc(Cl)cc1)c1ccc(Cl)cc1` [NCL275], for which the “Screen at 16 μg/mL” value is listed as “Growth”.
Same read-out and setting: with `CC(=NNC(=N)N)c1ccc(Cl)cc1F` [NCL236] the entry was “Growth”.
As for `Cl.N=C(NN=Cc1cnc2ccccc2n1)NN=Cc1cnc2ccccc2n1` [NCL147], the “Screen at 16 μg/mL” value was “Growth”.
Still for that read-out and setting: under `Cl.Clc1ccc(/C=N/Nc2cc(N/N=C/c3ccc(Cl)cc3)ncn2)cc1` [NCL187] stands “Growth”; under `Cl.N=C(N)NN=Cc1ccccc1C(F)(F)F` [NCL042], “Growth”; under `CCCCC(=NNC(=N)NN=C(CCCC)c1ccc(Cl)cc1)c1ccc(Cl)cc1.Cl` [NCL154], “Growth”.
The same measure, in the same setting: with `Nc1nc(NN=CC=Cc2ccccc2)cc(NN=CC=Cc2ccccc2)n1` [NCL246] the entry was “Growth”; with `CN(C)c1ccc(/C=N/NC(=N)N)cc1` [NCL253], “Growth”; with `Cc1cccc(C=NNC(=N)NN=Cc2cccc(C)c2O)c1O.Cl` [NCL152], “Growth”.
On the same count and under the same terms, with `N=C(N)NN=Cc1ccc(Cl)cc1F` [NCL235] the entry was “Growth”; with `Cl.N=C(NN=CC=Cc1ccccc1)NN=CC=Cc1ccccc1` [NCL096], “Growth”; with `COc1cc(C=NNC(=N)NN=Cc2ccc(O)c(OC)c2)ccc1O.Cl` [NCL117], “Growth”.
As to `Cl.N=C(N)NN=C(CNN)c1ccc(Cl)cc1` [NCL190], the “Screen at 16 μg/mL” value is recorded as “Growth”.
On the same count and under the same terms, with `Cl.N=C(NN=Cc1ccccc1C(F)(F)F)NN=Cc1ccccc1C(F)(F)F` [NCL036] the entry was “Growth”; with `Nc1nc(NN=Cc2cccc(O)c2)cc(NN=Cc2cccc(O)c2)n1` [NCL197], “Growth”.
Same read-out and setting: under `Cl.N=C(NN=C(CO)c1ccc(Cl)cc1)NN=C(CO)c1ccc(Cl)cc1` [NCL177] stands “Growth”.
Regarding `Nc1nc(NN=Cc2ccc(O)cc2)nc(NN=Cc2ccc(O)cc2)n1` [NCL211], the “Screen at 16 μg/mL” value is listed as “Growth”.
Still for that read-out and setting: with `Cl.N=C(NN=Cc1ccc2nsnc2c1)NN=Cc1ccc2nsnc2c1` [NCL277] the entry was “Growth”.
As to `Cl.N=C(NN=Cc1ccc2[nH]ccc2c1)NN=Cc1ccc2[nH]ccc2c1` [NCL146], the MIC is 4 µg/mL and 8 µg/mL; the “Screen at 16 μg/mL” value is “No growth”.
As to `C#Cc1cccc(C=NNC(=N)NN=Cc2cccc(C#C)c2)c1.Cl` [NCL126], the minimal inhibitory concentration (MIC) stood at 4 µg/mL and the “Screen at 16 μg/mL” value was “No growth”.
Turning to `Cl.N=C(N)NN=Cc1cccc(Cl)c1` [NCL052], the “Screen at 16 μg/mL” value was “Growth”.
On the same count and under the same terms, under `Cl.N=C(NN=Cc1ccc(O)c([N+](=O)[O-])c1)NN=Cc1ccc(O)c([N+](=O)[O-])c1` [NCL122] stands “Growth”; under `Cl.N=C(N)N/N=C/c1ccc(Cl)cc1` [NCL030], “Growth”.
Take `Cl.N=C(N)NN=Cc1cnc2ccccc2n1` [NCL278]: the “Screen at 16 μg/mL” value was “Growth”.
Same read-out and setting: under `CC(C)(C)c1ccc(C=NNC(=N)N)cc1` [NCL232] stands “Growth”.
Same read-out and setting: under `CC(C)(C)c1ccc(/C=N/NC(=N)N/N=C/c2ccc(C(C)(C)C)cc2)cc1.Cl` [NCL099] stands “Growth”.
Same read-out and setting: under `Cl.N#Cc1cccc(C=NNC(=N)N)c1` [NCL033] stands “Growth”.
As for `Cl.N=C(NN=Cc1ccoc1)NN=Cc1ccoc1` [NCL095], the “Screen at 16 μg/mL” value is on record as “Growth”.
Still for that read-out and setting: with `CCCCc1ccc(C=NNC(=N)NN=Cc2ccc(CCCC)cc2)cc1.Cl` [NCL136] the entry was “Growth”.
Take `Cc1ccc(C=NNC(=N)NN=Cc2ccc(C)cc2)cc1.Cl` [NCL038]: the minimal inhibitory concentration (MIC) is 2 µg/mL and 4 µg/mL; the “Screen at 16 μg/mL” value is recorded as “No growth”.
For the molecule `Cl.N=C(N)NN=Cc1ccc(F)cc1` [NCL053], the “Screen at 16 μg/mL” value is given as “Growth”.
The same measure, in the same setting: under `Cc1nc[nH]c1C=NNC(=N)N.Cl` [NCL283] stands “Growth”; under `O=C(NN=Cc1ccccc1Cl)NN=Cc1ccccc1Cl` [NCL002], “Growth”.
On to `Cl.N=C(NN=Cc1ccc(Br)cc1)NN=Cc1ccc(Br)cc1` [NCL134], for which the minimal inhibitory concentration (MIC) is less than 1 µg/mL and the “Screen at 16 μg/mL” value was “No growth”.
As for `Cc1ccc(/C=N/NC(=N)N)cc1.Cl` [NCL044], the “Screen at 16 μg/mL” value is reported as “Growth”.
Same read-out and setting: under `Cl.N=C(N)NN=Cc1ccccc1F` [NCL016] stands “Growth”; under `Cc1ccc(C=NNc2nc(N)nc(NN=Cc3ccc(C)cc3)n2)cc1` [NCL206], “Growth”.
On the same count and under the same terms, under `Cl.N=C(NN=Cc1c(O)ccc2ccccc12)NN=Cc1c(O)ccc2ccccc12` [NCL124] stands “Growth”.
Regarding `N=C(N)NN=C(CCC1CCCC1)c1ccc(Cl)cc1` [NCL266], the MIC was 4 µg/mL (≈ 13.7 µM) and the “Screen at 16 μg/mL” value was “No growth”.
Consider `Cl.N=C(N)N/N=C/c1ccc(C(F)(F)F)cc1` [NCL041], for which the “Screen at 16 μg/mL” value is “Growth”.
Same read-out and setting: with `Nc1nc(NN=Cc2ccccc2Cl)cc(NN=Cc2ccccc2Cl)n1` [NCL205] the entry was “Growth”; with `CCOC(=O)N(/N=C/c1ccc(Cl)cc1)C(=N)N/N=C/c1ccc(Cl)cc1` [NCL224], “Growth”.
Still for that read-out and setting: under `COc1ccc(C=NNC(=O)NN=Cc2ccc(OC)cc2)cc1` [NCL006] stands “Growth”.
For `Cl.N=C(NN=Cc1cc(F)ccc1F)NN=Cc1cc(F)ccc1F` [NCL118], the “Screen at 16 μg/mL” value is given as “Growth”.
In the case of `Cl.N=C(N)N/N=C(\C(=O)O)c1ccccc1` [NCL192], the “Screen at 16 μg/mL” value is “Growth”.
For `CC(=NNC(=N)NN=C(C)c1c[nH]c2ccccc12)c1c[nH]c2ccccc12` [NCL268], the MIC was found to be 4 µg/mL (≈ 10.8 µM) and the “Screen at 16 μg/mL” value was “No growth”.
In the case of `CC(=NNC(=N)NN=C(C)c1ccc(Br)cc1)c1ccc(Br)cc1.Cl` [NCL155], the “Screen at 16 μg/mL” value is recorded as “Growth”.
For `CC(=NNc1cc(NN=C(C)c2ccc(Cl)cc2)nc(N)n1)c1ccc(Cl)cc1` [NCL204], the “Screen at 16 μg/mL” value is listed as “Growth”.
